Data as given in ChEMBL document CHEMBL5506000, “Design, synthesis and antibacterial evaluation of low toxicity amphiphilic-cephalosporin derivatives” (Eur J Med Chem, 2024).
≈ marks a conversion by molar mass, not a printed value. Calls of active or inactive are those of the source. The rule behind the calls is not given here.

Key:
Staphylococcus aureus [1] = assay: Post-antibiotic effect against Staphylococcus aureus at 4 times of MIC incubated for 1 hrs; assay type: functional
Enterococcus faecalis = assay: Antibacterial activity against Enterococcus faecalis ATCC 29212 by CLSI protocol based assay; assay type: functional
Cell membrane [2] = assay: Induction of cell membrane damage in Staphylococcus aureus assessed as nucleic acid leakage at 8 to 32 microg/ml by absorbance based analysis; assay type: cell membranes; settings: dose 8-32 µg/ml
Staphylococcus aureus [3] = assay: Post-antibiotic effect against Staphylococcus aureus at 1 times of MIC incubated for 1 hrs; assay type: functional
[4] = Cytotoxicity against rat HBZY-1 cells assessed as reduction in cell viability by CCK-8 assay; assay type: toxicity, cell-based
Staphylococcus aureus [5] = assay: Drug resistance, ratio of MIC for Staphylococcus aureus measured within 20 days to MIC for Staphylococcus aureus; assay type: functional
Staphylococcus aureus [6] = assay: Antibacterial activity against Staphylococcus aureus measured after 3 to 6 hrs in presence of 50% plasma; assay type: functional, organism-based; settings: time 3-6 hrs
Staphylococcus aureus [7] = assay: Antibacterial activity against Staphylococcus aureus in presence of 50% serum; assay type: functional
Staphylococcus aureus [8] = assay: Resistance development in 20 day passaged Staphylococcus aureus assessed as cefotaxime antibacterial activity; assay type: functional, organism-based
Escherichia coli [9] = assay: Induction of morphological changes in Escherichia coli assessed as cell elongation at 8 times of MIC incubated for 6 hrs by scanning electron microscopic analysis; assay type: functional, organism-based
Escherichia coli [10] = assay: Antibacterial activity against Escherichia coli ATCC 25922 by CLSI protocol based assay; assay type: functional
[11] = Hemolytic activity in sheep RBC; assay type: toxicity, cell-based, Ovis aries, Erythrocyte; settings: sheep red blood cells (erythrocytes)
Staphylococcus aureus [12] = assay: Resistance development in 20 day passaged Staphylococcus aureus assessed as beta-lactam antibacterial activity; assay type: functional, organism-based
Cell membrane [13] = assay: Induction of inner membrane permeabilization in Staphylococcus aureus assessed as increase in fluorescence intensity at 16 microg/ml by PI staining based analysis; assay type: cell membranes; settings: dose 16.0 µg/ml
Staphylococcus aureus [14] = assay: Antibacterial activity against Staphylococcus aureus ATCC 29213 by CLSI protocol based assay; assay type: functional
[15] = Hemolytic activity in sheep RBC assessed as hemolysis rate at 1280 microg/ml relative to control; assay type: toxicity, cell-based, Ovis aries, Erythrocyte; settings: sheep red blood cells (erythrocytes), dose 1280 µg/ml, read-out: Activity
[16] = test system: Stenotrophomonas maltophilia; assay: Antibacterial activity against Stenotrophomonas maltophilia ATCC 17808 by CLSI protocol based assay; assay type: functional
Staphylococcus aureus [17] = assay: Resistance development in 20 day passaged Staphylococcus aureus assessed as ampicillin antibacterial activity; assay type: functional, organism-based
Staphylococcus aureus [18] = assay: Antibacterial activity against methicillin resistant Staphylococcus aureus clinical isolates assessed as 50% inhibition of bacterial growth; assay type: functional
[19] = Cytotoxicity against rat HBZY-1 cells assessed as viable cells at 128 microg/ml incubated for 48 hrs by CCK-8 assay relative to control; assay type: toxicity, cell-based; settings: at 128 µg/mL, read-out: Activity
[20] = Cytotoxicity against HUVEC assessed as viable cells at 128 microg/ml incubated for 48 hrs by CCK-8 assay relative to control; assay type: toxicity, cell-based; settings: human, at 128 µg/mL, read-out: Activity
[21] = Cytotoxicity against HUVEC assessed as reduction in cell viability by CCK-8 assay; assay type: toxicity, cell-based; settings: human, HUVEC cells
Staphylococcus aureus [22] = assay: Resistance development in 20 day passaged Staphylococcus aureus assessed as levofloxacin antibacterial activity; assay type: functional, organism-based
Staphylococcus aureus [23] = assay: Antibacterial activity against Staphylococcus aureus in presence of 50% plasma; assay type: functional
Cell membrane [24] = assay: Induction of cell membrane depolarization in Staphylococcus aureus assessed as increase in fluorescence intensity at 16 microg/ml by DiSC3(5) dye based assay; assay type: cell membranes; settings: dose 16.0 µg/ml
Staphylococcus aureus [25] = assay: Antibacterial activity against Staphylococcus aureus assessed as reduction in metabolic activity at sub-MIC; assay type: functional, organism-based
Staphylococcus aureus [26] = assay: Antibacterial activity against methicillin resistant Staphylococcus aureus clinical isolates; assay type: functional
Cell membrane [27] = assay: Induction of cell membrane damage in Staphylococcus aureus assessed as protein leakage at 8 to 32 microg/ml; assay type: cell membranes; settings: dose 8-32 µg/ml
Staphylococcus aureus [28] = assay: Resistance development in 20 day passaged Staphylococcus aureus assessed as ciprofloxacin antibacterial activity; assay type: functional, organism-based
Staphylococcus aureus [29] = assay: Antibacterial activity against Staphylococcus aureus assessed as inhibition of metabolic activity at MIC; assay type: functional
Staphylococcus aureus [30] = assay: Drug resistance, ratio of MIC for Staphylococcus aureus measured after 10 days to MIC for Staphylococcus aureus; assay type: functional
Staphylococcus aureus [31] = assay: Drug resistance, ratio of MIC for Staphylococcus aureus measured after 20 days to MIC for Staphylococcus aureus; assay type: functional
Staphylococcus aureus [32] = assay: Antibacterial activity against early exponential growth phase Staphylococcus aureus assessed as reduction in bacterial colony at 8 times of MIC measured at 8 to 24 hrs by time-kill kinetics assay; assay type: functional, organism-based; settings: time 8-24 hrs
Cell membrane [33] = assay: Induction of cell membrane damage in Staphylococcus aureus assessed as increase in protein leakage; assay type: cell membranes
Staphylococcus aureus [34] = assay: Drug resistance, ratio of MIC for Staphylococcus aureus measured after 7 days to MIC for Staphylococcus aureus; assay type: functional
Staphylococcus aureus [35] = assay: Antibacterial activity against Staphylococcus aureus measured after 20 days; assay type: functional; settings: 480 h, time 20 day
Staphylococcus aureus [36] = assay: Antibacterial activity against methicillin resistant Staphylococcus aureus; assay type: functional

## CCCCCCCCNC(=O)c1ccc[n+](CC2=C(C(=O)[O-])N3C(=O)[C@@H](NC(=O)/C(=N\OC)c4csc(N)n4)[C@H]3SC2)c1.O=C(O)C(F)(F)F
Staphylococcus aureus [1]
  PAE: 2.08 h
Enterococcus faecalis
  MIC: 4 µg/mL
Cell membrane [2]
  Activity: inactive
Staphylococcus aureus [3]
  PAE: 1.58 h
[4]
  CC50: > 128 µg/mL
Staphylococcus aureus [5]
  Ratio: <4
Staphylococcus aureus [6]
  Activity: Active
Staphylococcus aureus [7]
  MIC: 0.5 µg/mL
Staphylococcus aureus [8]
  Activity: Active
Escherichia coli [9]
  Activity: Active
Escherichia coli [10]
  MIC: 8 µg/mL
[11]
  HC50: > 1280 µg/mL
Staphylococcus aureus [12]
  Activity: Active
Cell membrane [13]
  Activity: inactive
Staphylococcus aureus [14]
  MIC: 0.5 µg/mL
[15]
  hemolysis at 1280 microg/ml: 2.85%
[16]
  MIC: 8 µg/mL
Staphylococcus aureus [17]
  Activity: Active
Staphylococcus aureus [18]
  MIC50: 2 µg/mL
[19]
  viability at 48 h, 128 microg/ml: 92.6%
[20]
  viability at 48 h, 128 microg/ml: 100%
[21]
  CC50: > 128 µg/mL
Staphylococcus aureus [22]
  Activity: Active
Staphylococcus aureus [23]
  MIC: 1 µg/mL
Cell membrane [24]
  Activity: inactive
Staphylococcus aureus [25]
  Activity: Active
Staphylococcus aureus [26]
  MIC: 2 µg/mL
Cell membrane [27]
  Activity: inactive
Staphylococcus aureus [28]
  Activity: Active
Staphylococcus aureus [29]
  inhibition (INH): ~100%

## CO/N=C(\C(=O)N[C@@H]1C(=O)N2C(C(=O)[O-])=C(C[n+]3ccccc3)CS[C@H]12)c1csc(N)n1.O=C(O)C(F)(F)F
Staphylococcus aureus [1]
  PAE: 2.1 h
Enterococcus faecalis
  MIC: 4 µg/mL
Staphylococcus aureus [3]
  PAE: 1.48 h
Staphylococcus aureus [30]
  Ratio: 8
[4]
  CC50: > 128 µg/mL
Staphylococcus aureus [6]
  Activity: Active
Staphylococcus aureus [8]
  Activity: inactive
Escherichia coli [9]
  Activity: Active
Escherichia coli [10]
  MIC: 0.063 µg/mL
[11]
  HC50: > 1280 µg/mL
Staphylococcus aureus [12]
  Activity: inactive
Cell membrane [13]
  Activity: inactive
Staphylococcus aureus [31]
  Ratio: 32
Staphylococcus aureus [14]
  MIC: 1 µg/mL
[16]
  MIC: 0.063 µg/mL
Staphylococcus aureus [32]
  Activity: Active
Staphylococcus aureus [17]
  Activity: inactive
Staphylococcus aureus [18]
  MIC50: 2 µg/mL
[21]
  CC50: > 128 µg/mL
Staphylococcus aureus [22]
  Activity: inactive
Cell membrane [24]
  Activity: inactive
Staphylococcus aureus [25]
  Activity: Active
Staphylococcus aureus [26]
  MIC: 2 µg/mL
Staphylococcus aureus [28]
  Activity: inactive
Staphylococcus aureus [29]
  inhibition (INH): ~100%

## CC[C@H](C)[C@H](NC(=O)CN)C(=O)NCC(=O)N[C@@H](C)C(=O)N[C@H](C(=O)N[C@@H](CC(C)C)C(=O)N[C@@H](CCCCN)C(=O)N[C@H](C(=O)N[C@@H](CC(C)C)C(=O)N[C@H](C(=O)N[C@H](C(=O)NCC(=O)N[C@@H](CC(C)C)C(=O)N1CCC[C@H]1C(=O)N[C@@H](C)C(=O)N[C@@H](CC(C)C)C(=O)N[C@H](C(=O)N[C@@H](CO)C(=O)N[C@@H](Cc1c[nH]c2ccccc12)C(=O)N[C@H](C(=O)N[C@@H](CCCCN)C(=O)N[C@@H](CCCNC(=N)N)C(=O)N[C@@H](CCCCN)C(=O)N[C@@H](CCCNC(=N)N)C(=O)N[C@@H](CCC(N)=O)C(=O)N[C@@H](CCC(N)=O)C(N)=O)[C@@H](C)CC)[C@@H](C)CC)[C@@H](C)O)[C@@H](C)O)C(C)C)C(C)C [MELITTIN]
Enterococcus faecalis
  MIC: 2 µg/mL (≈ 0.703 µM)
Cell membrane [13]
  Activity: Active
[16]
  MIC: 8 µg/mL (≈ 2.81 µM)
Cell membrane [24]
  Activity: Active
Cell membrane [33]
  Activity: Active
Staphylococcus aureus [25]
  Activity: Active
Staphylococcus aureus [29]
  inhibition (INH): ~100%

## CC[C@H]1OC(=O)[C@H](C)[C@@H](O[C@H]2C[C@@](C)(OC)[C@@H](O)[C@H](C)O2)[C@H](C)[C@@H](O[C@@H]2O[C@H](C)C[C@H](N(C)C)[C@H]2O)[C@](C)(O)C[C@@H](C)C(=O)[C@H](C)[C@@H](O)[C@]1(C)O [ERYTHROMYCIN]
Staphylococcus aureus [18]
  MIC50: > 128 µg/mL

## CO/N=C(\C(=O)N[C@@H]1C(=O)N2C(C(=O)[O-])=C(COC(C)=O)CS[C@H]12)c1csc(N)n1.[Na+] [CEFOTAXIME SODIUM]
Enterococcus faecalis
  MIC: 16 µg/mL
Escherichia coli [10]
  MIC: 2 µg/mL
[11]
  HC50: > 1280 µg/mL
Staphylococcus aureus [14]
  MIC: 1 µg/mL
[16]
  MIC: 2 µg/mL
Staphylococcus aureus [25]
  Activity: Active
Staphylococcus aureus [29]
  inhibition (INH): ~100%

## CCCCCCCCCCNC(=O)c1ccc[n+](CC2=C(C(=O)[O-])N3C(=O)[C@@H](NC(=O)/C(=N\OC)c4csc(N)n4)[C@H]3SC2)c1.O=C(O)C(F)(F)F
Enterococcus faecalis
  MIC: 4 µg/mL
Escherichia coli [10]
  MIC: 8 µg/mL
[11]
  HC50: > 1280 µg/mL
Staphylococcus aureus [14]
  MIC: 0.5 µg/mL
[15]
  hemolysis at 1280 microg/ml: 12.7%
[16]
  MIC: 8 µg/mL

## CCCCCCCCNC(=O)c1ccc[n+](CC2=C(C(=O)[O-])N3C(=O)[C@@H](NC(=O)/C(=N\OC(C)(C)C(=O)O)c4csc(N)n4)[C@H]3SC2)c1.O=C(O)C(F)(F)F
Enterococcus faecalis
  MIC: 128 µg/mL
Escherichia coli [10]
  MIC: 16 µg/mL
[11]
  HC50: > 1280 µg/mL
Staphylococcus aureus [14]
  MIC: 32 µg/mL
[16]
  MIC: 16 µg/mL

## GENTAMICIN
Cell membrane [13]
  Activity: inactive
Cell membrane [24]
  Activity: inactive

## CCn1cc(C(=O)O)c(=O)c2cc(F)c(N3CCNCC3)cc21 [NORFLOXACIN]
Staphylococcus aureus [8]
  Activity: inactive
Staphylococcus aureus [34]
  Ratio: 16
Staphylococcus aureus [12]
  Activity: inactive
Staphylococcus aureus [31]
  Ratio: 64
Staphylococcus aureus [17]
  Activity: inactive
Staphylococcus aureus [22]
  Activity: inactive
Staphylococcus aureus [35]
  MIC: 64 µg/mL (≈ 200 µM)
Staphylococcus aureus [28]
  Activity: inactive

## CCCCCCNC(=O)c1ccc[n+](CC2=C(C(=O)[O-])N3C(=O)[C@@H](NC(=O)/C(=N\OC)c4csc(N)n4)[C@H]3SC2)c1.O=C(O)C(F)(F)F
Enterococcus faecalis
  MIC: 4 µg/mL
Escherichia coli [10]
  MIC: 4 µg/mL
[11]
  HC50: > 1280 µg/mL
Staphylococcus aureus [14]
  MIC: 2 µg/mL
[16]
  MIC: 2 µg/mL

## CCCCCCN(Cc1ccc(-c2ccc(CN(CCCCCC)C(=O)[C@@H](N)CCCCN)cc2)cc1)C(=O)[C@@H](N)CCCCN.O=C(O)C(F)(F)F.O=C(O)C(F)(F)F.O=C(O)C(F)(F)F.O=C(O)C(F)(F)F
Staphylococcus aureus [36]
  MIC: 3.1 µg/mL

## CN[C@H](CC(C)C)C(=O)N[C@H]1C(=O)N[C@@H](CC(N)=O)C(=O)N[C@H]2C(=O)N[C@H]3C(=O)N[C@H](C(=O)N[C@H](C(=O)O)c4cc(O)cc(O)c4-c4cc3ccc4O)[C@H](O)c3ccc(c(Cl)c3)Oc3cc2cc(c3O[C@@H]2O[C@H](CO)[C@@H](O)[C@H](O)[C@H]2O[C@H]2C[C@](C)(N)[C@H](O)[C@H](C)O2)Oc2ccc(cc2Cl)[C@H]1O [VANCOMYCIN]
Staphylococcus aureus [1]
  PAE: 1.37 h
Enterococcus faecalis
  MIC: 2 µg/mL (≈ 1.38 µM)
Staphylococcus aureus [3]
  PAE: 0.67 h
Staphylococcus aureus [6]
  Activity: Active
[11]
  HC50: > 1280 µg/mL
Staphylococcus aureus [32]
  Activity: Active
Cell membrane [24]
  Activity: inactive
